Laboratory results published in publication PMC11395096, “Study of Pentacyclic Triterpenes from Lyophilised Aguaje: Anti-Inflammatory and Antioxidant Properties” (International Journal of Molecular Sciences, 2024).
Starred links: 1 amine or outer side, 2 acyl side, 3 side chain; linkers in the order of their positions; H or OH if unused. Positions of bridges follow the written chain, without caps; N, C: chain ends. Non-standard residues stand in square brackets, D forms with d. Residues, ends and D or L forms follow the SMILES beside them. Chains are numbered I, II in the order given. Actinocin(9to1) = Cc1c2oc3c(C)ccc(C(=O)[*:1])c3nc-2c(C(=O)[*:2])c(N)c1=O; NMeV = CN[C@H](C(=O)O)C(C)C; Sar = CNCC(=O)O

How the values were obtained:
[1] = NR viability assay, value not assigned to one cell line; assay type: cell-based, Mus musculus; settings: mouse
Protocol: (§1) Cell viability was evaluated using a colorimetric assay in 96-well plates, employing 3-amino-7-dimethylamino-2-methylphenazine hydrochloride salt reagent (NR, Sigma-Aldrich, CAS No. 553-24-2, St. Louis, MO, USA). ACTD (≥95% Sigma-Aldrich, CAS No. 50-76-0, St. Louis, MO, USA) was used as a positive control, with a CC50 value of 0.01 μg mL^−1 for the extracts, or 0.008 μM for the compounds. The IC-21 and RAW 264.7 cell lines were cultured in 96-well plates at 37 °C with 5% CO2 until >90% confluency was achieved (1 × 10^4 cells per well). Subsequently, the cultures were treated with sample dilutions (100–0.20 μg mL^−1 or μM) for 72 h at 37 °C with 5% CO2 in phenol red-free RPMI. The supernatant was then discarded, and the cells were washed with phosphate-buffered saline (PBS) before being incubated with […] NR (50 μg mL^−1; 173 μM) for 3 h at 37 °C with 5% CO2. NR labelling was performed after DMSO treatment. After incubation, the labelled sample dilutions were rapidly washed with a fixative solution composed of 1% calcium chloride (CaCl2 Sigma-Aldrich, CAS No. 10043-52-4, St. Louis, MO, USA) and 0.5% formaldehyde solution (≥36.0% in H2O Sigma-Aldrich, CAS No. 50-00-0, St. Louis, MO, USA), then diluted with 100 μL of the NR extraction solution. Finally, the plates were read at 540 nm using a microplate reader (Anthos 2020, version 2.0.5, Biochrom Ltd., Cambridge, UK).

[2] = system: IC-21 and RAW 264.7 cell lines; assay: as above; assay type: cell-based, Mus musculus; settings: across IC-21 and RAW 264.7 / cell line not given, compounds series
Protocol: as §1

[3] = NR (neutral red) viability assay, RAW 264.7 cells; assay type: cell-based, Mus musculus; settings: mouse, RAW 264.7, 72 h
Excerpt: (§2) The IC-21 (Mus musculus macrophage cells, TIB-186) and RAW 264.7 (Mus musculus macrophage cells, TIB-71) cell lines used in this study were obtained from the American Type Culture Collection (ATCC, Manassas, VA, USA). The selection of IC-21 and RAW 264.7 cell lines for studies on inflammation and antioxidant activity is based on two main reasons: the cell type and their origin. Firstly, both IC-21 and RAW 264.7 cell lines are macrophages, which play a crucial role in the immune system, being essential for the inflammatory response and regulation of oxidative stress. These cells have the capacity to produce pro-inflammatory cytokines, express transcription factors such as NF-κB, and generate NO, making them ideal models to understand inflammatory mechanisms. Moreover, macrophages are involved in the activation of Nrf2, a transcription factor critical for the antioxidant response, allowing these cell lines to enable a comprehensive assessment of antioxidant activity within an inflammatory context.
(§3) Cultivated in a Roswell Park Memorial Institute (RPMI) 1640 medium (RPMI 1640 Sigma-Aldrich, CAS No. R7755, St. Louis, MO, USA) supplemented with 2 mM L-glutamine (≥99% Sigma-Aldrich, CAS No. 56-85-9, St. Louis, MO, USA), 10% foetal bovine serum (FBS Sigma-Aldrich, CAS No. TMS-016, St. Louis, MO, USA), and 10,000 units of penicillin and 10 mg streptomycin mL^−1 (Sigma-Aldrich, CAS No. P4333, St. Louis, MO, USA) in culture flasks, the cells were maintained in an incubator under normoxic conditions (20–21% O2) and a humidified atmosphere (5% CO2, at 37 °C).
(§4) Stock solutions of the samples (extracts and compounds) were prepared at a concentration of 1 mM using dimethyl sulfoxide (DMSO ≥ 99.9% Sigma-Aldrich, CAS No. 67-68-5, St. Louis, MO, USA) as the solvent. Dilutions from these stock solutions were then made to achieve concentrations between 100 and 0.20 μg mL^−1 or μM in the culture medium, which contained 0.5% DMSO. A control group consisting only of the culture medium with 0.5% DMSO was also included to determine its potential cytotoxicity.
(§5) The 50% cytotoxic concentration (CC50), 50% inhibitory concentration (IC50), and half-maximal effective concentration (EC50) values were calculated using the sigmoidal dose–response function. All experiments were conducted in triplicate, and the data obtained were expressed as the mean and standard deviation. A two-way analysis of variance (ANOVA) combined with Dunnett’s multiple comparisons test (p < 0.001) was performed for the cytotoxicity, NF-κB inhibition, NO inhibition and Nrf2 activation assays, while a one-way ordinary ANOVA combined with Dunnett’s multiple comparisons test (p < 0.001) was conducted for the SOD assay. All statistical analyses were performed using GraphPad Prism version 10.0.0 (La Jolla, CA, USA, www.graphpad.com, accessed on 28 August 2024).
as §1, with “After incubation, the labelled sample dilutions were rapidly washed with a fixative solution composed of 1% calcium chloride (CaCl2 Sigma-Aldrich, CAS No. 10043-52-4, St. Louis, MO, USA) and 0.5% formaldehyde solution (≥36.0% in H2O Sigma-Aldrich, CAS No. 50-00-0, St. Louis, MO, USA), then diluted with 100 μL of the NR extraction solution. Finally, the plates were read at 540 nm using a microplate reader (Anthos 2020, version 2.0.5, Biochrom Ltd., Cambridge, UK).” left out

[4] = NR (neutral red) viability assay, IC-21 cells; assay type: cell-based, Mus musculus; settings: mouse, IC-21, 72 h
Excerpt: as §2, §3, §4, §5
as §1, with “After incubation, the labelled sample dilutions were rapidly washed with a fixative solution composed of 1% calcium chloride (CaCl2 Sigma-Aldrich, CAS No. 10043-52-4, St. Louis, MO, USA) and 0.5% formaldehyde solution (≥36.0% in H2O Sigma-Aldrich, CAS No. 50-00-0, St. Louis, MO, USA), then diluted with 100 μL of the NR extraction solution. Finally, the plates were read at 540 nm using a microplate reader (Anthos 2020, version 2.0.5, Biochrom Ltd., Cambridge, UK).” left out

[5] = system: Nrf2; settings: cited from earlier work

| Structure (SMILES) | CC50 at 72 h ([1]; across IC-21 and RAW 264.7 / cell line not given, compounds series) [nM] | CC50 at 72 h ([1]; cell line not stated, extracts series) [µg/mL] | CC50 [2] [nM] | CC50 at 72 h ([3]; compounds series) [nM] | CC50 at 72 h ([3]; extracts series) [µg/mL] | CC50 at 72 h ([4]; compounds series) [nM] | CC50 at 72 h ([4]; extracts series) [µg/mL] | concentration activating the Nrf2 signalling pathway [5] [µM] |
| --- | --- | --- | --- | --- | --- | --- | --- | --- |
| Cc1c2oc3c(C)ccc(C(=O)N[C@@H]4C(=O)N[C@H](C(C)C)C(=O)N5CCC[C@H]5C(=O)N(C)CC(=O)N(C)[C@@H](C(C)C)C(=O)O[C@@H]4C)c3nc-2c(C(=O)N[C@@H]2C(=O)N[C@H](C(C)C)C(=O)N3CCC[C@H]3C(=O)N(C)CC(=O)N(C)[C@@H](C(C)C)C(=O)O[C@@H]2C)c(N)c1=O [ACTD, actinomycin D, reference compound] (I: T[dV]P[Sar][NMeV] / II: T[dV]P[Sar][NMeV]; ester I:1-I:C, II:1-II:C; linker I:N-II:N via Actinocin(9to1)) | 8.5 to 8.8 | 0.01 | 8 | 8.8 | 0.0193 | 8.5 | 0.0143 |  |
| C[S+]([O-])CCCCN=C=S (centres unmarked) [sulforaphane] |  |  |  |  |  |  |  | 5 to 20 |
